“And” between values parts separate entries of the source, which are not always exact repeats. Equal entries are not always repeated. Numbers after ± are expanded uncertainties.

The conditions of data set [1]: 101 kPa, Liquid, Vibrating tube method.
Data set [2] is described as follows: xn = mol fraction of the nth substance listed. The note with it: 101 kPa, Liquid, Vibrating tube method, x1 = 1.

Turning to `NCCO` [2-aminoethan-1-ol], the mass density in data set [1] (288.15 K) amounted to 1019.87 ± 0.2 kg/m3; in data set [1] (298.15 K), 1012.12 ± 0.2 kg/m3; in data set [1] (353.15 K) it was 968.332 ± 0.2 kg/m3.
Taken in the same sequence, the figures for `CN(CCO)CCO` [N-methyldiethanolamine] were 1046.36 ± 0.21 kg/m3, 1036.81 ± 0.21 kg/m3 and 994.015 ± 0.2 kg/m3.
As to `CCCCCCC` [heptane], the mass density in data set [1] (298.15 K) is reported as 679.537 ± 0.26 kg/m3.
Take `CCCCCCC` [heptane] + Cc1ccccc1: the mass density in data set [2] (298.15 K) amounted to 679.537 ± 0.26 kg/m3.
As for `c1ccncc1` [pyridine], the mass density in data set [1] (288.15 K) is 988.041 ± 0.2 kg/m3 and 988.343 ± 0.2 kg/m3; in data set [1] (298.15 K), 978.145 ± 0.2 kg/m3 and 978.086 ± 0.2 kg/m3; in data set [1] (353.15 K), 921.953 ± 0.21 kg/m3 and 921.952 ± 0.21 kg/m3.
Take `c1ccncc1` [pyridine] + CN(CCO)CCO: the results for the mass density in data set [2] (288.15 K), in data set [2] (298.15 K) and in data set [2] (353.15 K) were 988.343 ± 0.2 kg/m3, 978.086 ± 0.2 kg/m3 and 921.952 ± 0.21 kg/m3, respectively.
`c1ccncc1` [pyridine] + NCCO: the mass density in data set [2] (288.15 K) is 988.041 ± 0.2 kg/m3; in data set [2] (298.15 K) it was 978.145 ± 0.2 kg/m3; in data set [2] (353.15 K) it was 921.953 ± 0.21 kg/m3.
As for `Cc1ccccc1` [toluene], the mass density in data set [1] (298.15 K) amounted to 862.222 ± 0.21 kg/m3.

A word on the mass density: it is mass per unit of volume.

The record behind these values is the NIST ThermoML archive (doi:10.1021/je400184t).
